Some test systems named below: KM12 colon; HT29 colon; COLO 205 colon; SK-MEL-5 melanoma; MDA-MB-435; DU-145 prostate; NCI-H522 lung; A498 renal; NCI/ADR-RES ovarian; MDA-N.
Common to all, as to assay: inhibition of tumour cell growth, NCI panel, 48 h

Molecules are shown by their SMILES.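 Five concentrations, 48 hours, 96-well plates. GI50: concentration for 50% inhibition of growth. At the TGI there is no net growth.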 Some results are limits rather than exact numbers.

As to `O=C(Nc1ccc(-n2cc(-c3ccncc3)c(-c3ccc(O)c(Cl)c3)n2)cc1)Nc1cc(C(F)(F)F)cc(C(F)(F)F)c1`, the GI50 in the assay on KM12 colon was 3.3 µM; in the assay on HT29 colon it was 8.94 µM; in the assay with COLO 205 colon it was 2.62 µM; in the assay with SK-MEL-5 melanoma it was 4.08 µM; in the assay on MDA-MB-435, 3.37 µM; with DU-145 prostate it was 5.97 µM. Further, the values for the GI50 in the assay on NCI-H522 lung, in the assay on A498 renal and with NCI/ADR-RES ovarian were 3.79 µM, 3.68 µM and 4.94 µM, respectively. Besides, the TGI with KM12 colon was 11.7 µM; in the assay on HT29 colon it was 22.7 µM; with COLO 205 colon, 7.83 µM; with SK-MEL-5 melanoma, 15.5 µM; in the assay on MDA-MB-435, 12.8 µM; in the assay on DU-145 prostate, 18.9 µM. Besides, the results for the TGI in the assay on NCI-H522 lung, in the assay on A498 renal and with NCI/ADR-RES ovarian were 15 µM, 16.3 µM and 22.5 µM, respectively.

On to `CCOC(=O)C(Cc1ccc(N=NN(C)C)cc1)NC(=O)CC1c2ccccc2-c2ccccc21` (stereo unspecified), for which the TGI with KM12 colon, in the assay on HT29 colon, in the assay on COLO 205 colon, in the assay on SK-MEL-5 melanoma, in the assay with NCI-H522 lung and with A498 renal was more than 100 µM in each case.

For `COc1ccc2oc(=O)c(-c3cc4c(c(C)n3)c(=O)oc3ccc(OC)cc34)cc2c1`, the TGI in the assay on KM12 colon, in the assay on MDA-N, in the assay on HT29 colon, in the assay with COLO 205 colon, in the assay on SK-MEL-5 melanoma and with MDA-MB-435 was more than 100 µM in each case. The TGI in the assay on DU-145 prostate, with NCI-H522 lung and with NCI/ADR-RES ovarian was more than 100 µM throughout.

On to `NCCCNc1nc2ccccc2c2c(=O)c3cc(Cl)ccc3sc12`, for which the GI50 is 1.72 µM with HT29 colon; 1.63 µM with COLO 205 colon; 3.71 µM in the assay on SK-MEL-5 melanoma; 1.75 µM in the assay on MDA-MB-435; 1.84 µM in the assay on DU-145 prostate; 1.66 µM in the assay on NCI-H522 lung. In addition, in the assay on A498 renal, the GI50 is 3.22 µM. In addition, the TGI is 3.18 µM in the assay with HT29 colon; 3.1 µM in the assay on COLO 205 colon; 16.2 µM with SK-MEL-5 melanoma; 3.18 µM in the assay on MDA-MB-435; 3.27 µM in the assay on DU-145 prostate; 3.14 µM in the assay on NCI-H522 lung. The TGI in the assay on A498 renal amounted to 12.1 µM.

Turning to `COC1=C(OC)C(=O)C(Cc2c(Cl)nc3sccn23)=C(C)C1=O`, the TGI in the assay on KM12 colon was found to be 22.3 µM; in the assay on HT29 colon, 27.7 µM; in the assay with COLO 205 colon, 29.2 µM; in the assay on SK-MEL-5 melanoma, 17.5 µM; in the assay on MDA-MB-435, 21.8 µM; with DU-145 prostate it was 27.2 µM. Further, the results for the TGI in the assay with NCI-H522 lung, in the assay with A498 renal and with NCI/ADR-RES ovarian were 20.2 µM, 28.5 µM and 20 µM, respectively.

With `Cc1cc(-c2ccc(N=Nc3ccc4c(S(=O)(=O)O)cc(S(=O)(=O)O)c(N)c4c3O)c(C)c2)ccc1N=Nc1ccc2c(S(=O)(=O)O)cc(S(=O)(=O)O)c(N)c2c1O`, the TGI in the assay with KM12 colon, in the assay with HT29 colon, with COLO 205 colon, in the assay on SK-MEL-5 melanoma, in the assay with NCI-H522 lung and in the assay on A498 renal was more than 100 µM each time. The TGI with NCI/ADR-RES ovarian is more than 100 µM.

On to `C/C(CCN(C)C)=N/O`, for which the TGI is 25.5 µM in the assay with KM12 colon; 10.3 µM in the assay with HT29 colon; 15.8 µM in the assay with COLO 205 colon; 24.3 µM in the assay on SK-MEL-5 melanoma; 2.55 µM with NCI-H522 lung; 35.1 µM in the assay with A498 renal.

Regarding `Cc1ccc(S(=O)(=O)OCCN(CCOS(=O)(=O)c2ccc(C)cc2)c2ccc(C=O)cc2)cc1`, the TGI is 53 µM in the assay on KM12 colon; more than 100 µM in the assay on HT29 colon; more than 100 µM in the assay on COLO 205 colon; more than 100 µM with SK-MEL-5 melanoma; 44.4 µM in the assay with MDA-MB-435; 69.9 µM in the assay with DU-145 prostate. Moreover, the TGI in the assay with NCI-H522 lung is 34.1 µM; in the assay with A498 renal, 61 µM; in the assay on NCI/ADR-RES ovarian, more than 100 µM.

With `Cc1ccc(S(=O)(=O)N/N=c2/sc3ccccc3n2C)cc1`, the TGI in the assay with KM12 colon, in the assay with HT29 colon, in the assay with COLO 205 colon, in the assay on SK-MEL-5 melanoma, in the assay with MDA-MB-435 and with DU-145 prostate was more than 100 µM in each case. The TGI in the assay with NCI-H522 lung, in the assay on A498 renal and with NCI/ADR-RES ovarian was more than 100 µM in each case.

Regarding `CC(C)C(NCc1c2ccccc2[n+](C)c2ccccc12)C(=O)O` (stereo unspecified), the TGI with KM12 colon was 18.7 µM; in the assay with HT29 colon, 10.3 µM; in the assay with COLO 205 colon it was 10.6 µM; in the assay with SK-MEL-5 melanoma, 20.8 µM; in the assay on NCI-H522 lung, 3.69 µM; in the assay with A498 renal it was 24.6 µM.

Consider `CN1C(c2ccccc2)CC(O)CC1c1ccccc1` (stereo unspecified), for which the TGI with KM12 colon, in the assay with HT29 colon, with COLO 205 colon, with SK-MEL-5 melanoma, in the assay with NCI-H522 lung and with A498 renal was more than 100 µM each time.

Consider `COC(=O)[C@H](C)NC(=O)[C@H](NS(=O)(=O)c1nc2ccccc2s1)c1ccccc1`, for which the TGI in the assay on KM12 colon is 30.5 µM; in the assay on HT29 colon it was more than 100 µM; in the assay with COLO 205 colon it was 25.9 µM; in the assay with SK-MEL-5 melanoma, 40.5 µM; with MDA-MB-435 it was more than 100 µM; in the assay with DU-145 prostate, 41 µM. In the assay on NCI/ADR-RES ovarian, this compound gave a TGI of more than 100 µM.

Consider `O=S(Nc1ccccc1)c1ccc(Cl)cc1` (stereo unspecified), for which the TGI is 59.9 µM in the assay with KM12 colon; more than 100 µM in the assay with MDA-N; more than 100 µM with HT29 colon; more than 100 µM in the assay on COLO 205 colon; more than 100 µM with SK-MEL-5 melanoma; more than 100 µM in the assay with MDA-MB-435. The TGI in the assay with DU-145 prostate, in the assay with NCI-H522 lung and in the assay with NCI/ADR-RES ovarian was more than 100 µM in each case.

With `CCOC(=O)CNC(=O)c1[nH]cnc1/N=N/N(C)C`, the TGI with KM12 colon, in the assay on HT29 colon, in the assay with COLO 205 colon, with SK-MEL-5 melanoma, in the assay with NCI-H522 lung and with A498 renal was more than 100 µM each time.

(Values after PubChem BioAssay (NCI).)
